In patent US12581252B2, “Substituted pyrrolo[3,4-b]pyridines as PI3K-α inhibitors” (Relay Therapeutics, Inc., priority 2020, dated 2026):

Target: H1047R PIK3CA enzyme (Homo sapiens, UniProt P42336, H1047R)
Test: ADP-Glo Biochemical PIK3CA Kinase Assay

H1047R PIK3CA enzyme, sequence (P42336 whole entry H1047R): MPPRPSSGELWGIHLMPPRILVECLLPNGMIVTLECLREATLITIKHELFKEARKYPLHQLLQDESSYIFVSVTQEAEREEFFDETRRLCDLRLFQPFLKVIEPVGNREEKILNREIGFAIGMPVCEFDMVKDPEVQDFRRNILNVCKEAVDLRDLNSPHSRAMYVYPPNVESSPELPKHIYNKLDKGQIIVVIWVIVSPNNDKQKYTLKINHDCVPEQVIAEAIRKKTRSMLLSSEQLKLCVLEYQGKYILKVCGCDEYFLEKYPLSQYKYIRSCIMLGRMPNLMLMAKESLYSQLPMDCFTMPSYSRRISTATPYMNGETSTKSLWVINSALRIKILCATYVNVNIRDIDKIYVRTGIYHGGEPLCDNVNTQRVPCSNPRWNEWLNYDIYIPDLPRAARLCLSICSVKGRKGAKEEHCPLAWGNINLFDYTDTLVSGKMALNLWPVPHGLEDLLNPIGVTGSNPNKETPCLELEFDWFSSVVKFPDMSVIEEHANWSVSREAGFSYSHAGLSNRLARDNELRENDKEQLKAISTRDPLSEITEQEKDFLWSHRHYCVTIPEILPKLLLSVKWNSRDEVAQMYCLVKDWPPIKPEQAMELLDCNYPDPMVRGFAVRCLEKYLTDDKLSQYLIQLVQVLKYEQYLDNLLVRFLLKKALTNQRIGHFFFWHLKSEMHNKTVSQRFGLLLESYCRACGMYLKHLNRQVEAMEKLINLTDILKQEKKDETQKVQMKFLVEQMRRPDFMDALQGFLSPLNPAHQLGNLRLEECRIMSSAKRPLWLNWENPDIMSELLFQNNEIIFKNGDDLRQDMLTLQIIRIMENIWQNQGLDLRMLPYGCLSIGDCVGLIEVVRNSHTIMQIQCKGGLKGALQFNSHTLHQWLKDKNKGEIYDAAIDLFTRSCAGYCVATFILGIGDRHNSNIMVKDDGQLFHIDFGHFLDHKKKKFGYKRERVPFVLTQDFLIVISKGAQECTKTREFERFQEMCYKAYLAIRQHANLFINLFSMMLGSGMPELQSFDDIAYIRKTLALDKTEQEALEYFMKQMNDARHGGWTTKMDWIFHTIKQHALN
H1047R PIK3CA enzyme, sequence (P27986 whole entry partner): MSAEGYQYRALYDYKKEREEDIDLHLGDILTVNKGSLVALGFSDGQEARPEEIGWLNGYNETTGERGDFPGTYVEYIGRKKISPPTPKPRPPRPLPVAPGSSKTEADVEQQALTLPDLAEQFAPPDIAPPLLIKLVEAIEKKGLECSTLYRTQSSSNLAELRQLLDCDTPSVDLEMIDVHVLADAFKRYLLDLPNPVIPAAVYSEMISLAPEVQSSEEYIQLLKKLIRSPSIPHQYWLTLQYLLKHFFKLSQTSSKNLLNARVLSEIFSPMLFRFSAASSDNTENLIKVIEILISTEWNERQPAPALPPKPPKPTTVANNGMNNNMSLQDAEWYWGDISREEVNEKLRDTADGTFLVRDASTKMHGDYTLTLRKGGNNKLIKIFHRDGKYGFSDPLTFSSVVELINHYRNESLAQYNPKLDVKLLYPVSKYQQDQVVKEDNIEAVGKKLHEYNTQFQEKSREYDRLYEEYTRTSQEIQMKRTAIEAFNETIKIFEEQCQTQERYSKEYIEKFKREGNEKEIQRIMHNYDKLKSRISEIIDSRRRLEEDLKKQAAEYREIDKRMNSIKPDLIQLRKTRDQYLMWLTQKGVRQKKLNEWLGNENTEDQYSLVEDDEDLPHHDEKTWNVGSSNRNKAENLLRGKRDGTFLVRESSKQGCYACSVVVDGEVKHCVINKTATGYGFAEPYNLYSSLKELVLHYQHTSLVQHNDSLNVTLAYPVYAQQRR

| IC50 | SMILES |
| --- | --- |
| ≤ 100 nM | N#Cc1cnn2ccc(-c3cc(NC(=O)c4cc(F)cc(C(F)(F)F)c4)c4c(c3)C(=O)NC4c3cc(F)ccc3Cl)cc12 (stereo not shown) [Compound I-1762] |
| 500 to 1000 nM | O=C1NC(c2cc(F)ccc2Cl)c2c(NC(=O)c3cccc4c(Cl)c[nH]c34)cc(Br)cc21 (stereo not shown) [Compound I-1271] |
| 100 to 500 nM | N#CCCc1cc(NC(=O)N2C[C@@H](O)c3cc(F)ccc32)c2c(c1)C(=O)N[C@H]2c1cc(F)ccc1Cl (single isomer, unassigned) [Compound I-2347] |
| ≤ 100 nM | CCn1cc(-c2cc(NC(=O)c3cc(F)cc(C(F)(F)F)c3)c3c(c2)C(=O)N[C@H]3c2cc(F)ccc2Cl)ccc1=O [Compound I-704] |
| 100 to 500 nM | O=C(Cc1cc(-c2ccc3ncnn3c2)cc2c1C(c1cc(F)ccc1Cl)NC2=O)c1cc(F)cc(C(F)(F)F)c1 (stereo not shown) [Compound I-1772] |
| 10000 to 100000 nM | O=C(Nc1cccc2c1C(c1ccc3ccccc3c1)NC2=O)c1cc(F)cc(C(F)(F)F)c1 (stereo not shown) [Compound I-371] |
| ≤ 100 nM | O=C(Nc1cc(C2CCCN2)cc2c1C(c1cc(F)ccc1Cl)NC2=O)c1cc(F)cc(C(F)(F)F)c1 (stereo not shown) [Compound I-1218] |
| 500 to 1000 nM | O=C(Nc1cc(Br)cc2c1C(c1cc(F)ccc1Cl)NC2=O)c1cc(Cl)c(Cl)s1 (stereo not shown) [Compound I-1384] |
| 10000 to 100000 nM | O=C1CCC[C@H]([C@H]2NC(=O)c3cccc(NC(=O)c4cc(F)cc(C(F)(F)F)c4)c32)C1 (single isomer, unassigned) [Compound I-2252] |
| 100 to 500 nM | CC(=O)N1CC[C@H](Oc2cc(NC(=O)c3cc(F)cc(C(F)(F)F)c3)c3c(c2)C(=O)NC3c2cc(F)ccc2Cl)C1 (single isomer, unassigned) [Compound I-1541] |
| 500 to 1000 nM | Cc1nn(C(=O)Nc2cccc3c2C(c2cc(F)ccc2Cl)NC3=O)c2ccccc12 (stereo not shown) [Compound I-2380] |
| 100 to 500 nM | O=C(Nc1cc(-c2ccc3cc[nH]c3c2)cc2c1C(c1cc(F)ccc1Cl)NC2=O)c1cc(F)cc(C(F)(F)F)c1 (stereo not shown) [Compound I-855] |
| 10000 to 100000 nM | O=C1N[C@@H](c2cc(F)ccc2Cl)c2c(NC(=O)[C@@H]3CC[C@H](O)C3)cc(Br)cc21 (single isomer, unassigned) [Compound I-2104] |
| 10000 to 100000 nM | O=C(Nc1cc(Br)cc2c1C(c1cc(F)ccc1Cl)NC2=O)c1cncc(F)c1 (stereo not shown) [Compound I-958] |
| ≤ 100 nM | O=C(Nc1cc(-c2ccc3ncc(F)n3c2)cc2c1C(c1cc(F)ccc1Cl)NC2=O)c1cc(F)cc(C(F)(F)F)c1 (stereo not shown) [Compound I-1793] |
| 1000 to 10000 nM | N#CC(C(=O)Nc1cc(-c2ccc3ncnn3c2)cc2c1C(c1cc(F)ccc1Cl)NC2=O)c1ccccc1 (stereo not shown) [Compound I-1834] |
| ≤ 100 nM | O=C(Nc1cc(-n2cnc3ncccc32)cc2c1C(c1cc(F)ccc1Cl)NC2=O)c1cc(F)cc(C(F)(F)F)c1 (stereo not shown) [Compound I-1233] |
| 10000 to 100000 nM | Cc1ccccc1C1NC(=O)c2cccc(NC(=O)N3CC(=O)Nc4ccccc43)c21 (stereo not shown) [Compound I-44] |
| ≤ 100 nM | O=C(Nc1cc(Cc2ccc3c(c2)CNC3=O)cc2c1C(c1cc(F)ccc1Cl)NC2=O)c1cc(F)cc(C(F)(F)F)c1 (stereo not shown) [Compound I-1496] |
| 1000 to 10000 nM | CC(C)(O)c1cc(NC(=O)c2cc(F)cc(C(F)(F)F)c2)c2c(c1)C(=O)N[C@@H]2c1cc(F)ccc1Cl [Compound I-190] |
| 10000 to 100000 nM | CC[C@H](CC(=O)Nc1cccc2c1[C@@H](c1cc(F)ccc1Cl)NC2=O)[C@@H](C)C(F)(F)F (single isomer, unassigned) [Compound I-2338] |
| 1000 to 10000 nM | Cc1ccccc1C1NC(=O)c2cccc(-c3cc4c(F)cc(F)cc4[nH]3)c21 (stereo not shown) [Compound I-479] |
| 1000 to 10000 nM | CC(C)(CN)n1cc(-c2cc(NC(=O)N3C[C@@](O)(C(F)(F)F)c4cc(F)ccc43)c3c(c2)C(=O)N[C@H]3c2cc(F)ccc2Cl)cn1 (single isomer, unassigned) [Compound I-2651] |
| 100 to 500 nM | O=C(Nc1cc(Br)cc2c1C(c1cc(F)ccc1Cl)NC2=O)c1cc(O)cc(Cl)c1 (stereo not shown) [Compound I-1282] |
| ≤ 100 nM | O=C1CCC(c2cc(NC(=O)c3cc(F)cc(C(F)(F)F)c3)c3c(c2)C(=O)NC3c2cc(F)ccc2Cl)N1 (stereo not shown) [Compound I-861] |
